Measured values published in patent US20140213632A1, “HCV Combination Therapy” (Stella Aps, priority 2011, published 2014).
Where two headings read alike, the source gives them in different places.

How the values were obtained:
[1] = system: HCV genotype 1b replicon NS3 R155K; type: cell-based; settings: EC50 mutant / EC50 wild-type; mean of two experiments (individual values); 72 hours
Description: (§1) The objective of this study was to evaluate the in vitro antiviral activity of miravirsen (SPC3649) against wild-type HCV genotype Ib replicon and NS3, NS5A and NS5B drug-resistant HCV genotype 1 b replicons in transient transfection assays utilizing Huh 7 cells. Method: The in vitro antiviral of miravirsen was evaluated against wild-type HCV genotype 1 b replicon and HCV genotype 1 b replicons constructed to contain key amino acid substitutions in NS3 protease (A156T, R155K), NS5B polymerase (S282T, M423I) and NS5A protein (Y93H) in transient transfection assays utilizing Huh 7 cells. […] Huh 7 cells were transfected with either the wild-type or the mutant RNA constructs by electroporation. Luciferase activity was measured 72 hours after compound treatment and EC50 values determined from dose-response curves. Fold resistance was expressed as the ratio of the EC50 for mutant HCV replicon to the EC50 for wild-type HCV replicon.
(§2) The in vitro antiviral of miravirsen was evaluated against wild-type HCV genotype Ib replicon and HCV replicons constructed to contain key amino acid substitutions in NS3 protease (A156T, R155K), NS5B polymerase (S282T, M423I) and NS5A protein (Y93H) in transient transfection assays. […] Huh 7 cells were transfected with either the wild type or the mutant RNA constructs by electroporation. Luciferase activity was measured 72 hours after compound treatment and EC50 values determined from dose-response curves. Fold resistance was expressed as the ratio of the EC50 for mutant HCV replicon to the EC50 for wild-type HCV replicon. Results are expressed as the mean of two individual experiments. In an initial set of experiments, the standard protocol was modified by adding compounds 24 hours after electroporation. […] In a third experiment cells were pretreated with miravirsen for 24 hours before electroporation with wild-type RNA constructs to determine if preincubation could result in increased miravirsen antiviral activity.

[2] = system: HCV genotype Ib replicon in Huh-luc/neo-ET cells; type: cell-based, HCV genotype 1b; settings: for interaction: SPC3649 with 2-methyl cytidine
Description: The anti-viral efficacy and cellular toxicity of non-transfected antimiR oligonucleotide in combination with approved and experimental anti-HCV therapeutics (e.g. BMS-790052) (or other NS5A inhibitors), was determined in the reporter cell line Huh-luc/neo-ET. This cell line harbors the persistently replicating I389luc-ubi-neo/NS3-37ET replicon containing the firefly luciferase gene-ubiquitin-neomycin phosphotransferase fusion protein and EMCV IRES driven NS3-5B HCV coding sequences containing the ET tissue culture adaptive mutations (E1202G, T1208I, and K1846T). Eight dilutions of non-transfected antimiR oligonucleotide (bracketing the calculated EC50) were evaluated in triplicate on duplicate sets of three plates with five dilutions of each of the control compounds (bracketing the calculated EC50). One set of plates was used for the determination of cellular toxicity and the other set of plates was used for the determination of anti-viral efficacy. The efficacy and toxicity results was quantified with firefly luciferase activity and XTT dye reduction, respectively, and the results of the assay is imported into the Prichard and Shipman MacSynergy II software program. The MacSynergy II analysis includes calculation of the dose response of the two (or more) compounds when used alone followed by calculation of the expected additive level of antiviral inhibition or toxicity when the compounds are used together based on the individual dose response curves. The expected level of activity at each of the concentration data points was compared to the experimentally determined antiviral activity in the assay. The expected activity was subtracted from the realized activity, yielding a negative, zero or positive value. […]
The combination antiviral assays were performed using the reporter cell line Huh-luc/neo-ET, which contains a bicistronic HCV genotype Ib replicon. Combination data were analyzed using MacSynergy II software at the 95%, confidence interval. […]

Huh-luc/neo-ET cells = system: Huh-luc/neo-ET cells
Description: Eight dilutions of non-transfected antimiR oligonucleotide (bracketing the calculated EC50) were evaluated in triplicate on duplicate sets of three plates with five dilutions of each of the control compounds (bracketing the calculated EC50). One set of plates was used for the determination of cellular toxicity and the other set of plates was used for the determination of anti-viral efficacy. The efficacy and toxicity results was quantified with firefly luciferase activity and XTT dye reduction, respectively, and the results of the assay is imported into the Prichard and Shipman MacSynergy II software program. […] The expected level of activity at each of the concentration data points was compared to the experimentally determined antiviral activity in the assay. The expected activity was subtracted from the realized activity, yielding a negative, zero or positive value. […]
The cells were treated with trypsin and enumerated by staining with trypan blue and seeded into 96-well tissue culture plates at a cell culture density 5.0×10^3 cells per well in a volume of 85 f.IL per well and incubated at […] in an environment of 5% CO2 for 24 hours. […] Following incubation, the plates were assessed for anti-HCV activity by measurement of luciferase reporter activity and cellular cytotoxicity by XTT staining.

[3] = system: HCV genotype 1b replicon NS5B M423I; type: cell-based; settings: EC50 mutant / EC50 wild-type; mean of two experiments (individual values); 72 hours
Description: as §1, §2

[4] = system: HCV genotype 1b replicon NS5A Y93H; type: cell-based; settings: EC50 mutant / EC50 wild-type; mean of two experiments (individual values); 72 hours
Description: as §1, §2

[5] = system: HCV genotype 1b replicon NS5B S282T; type: cell-based; settings: EC50 mutant / EC50 wild-type; mean of two experiments (individual values); 72 hours
Description: as §1, §2

[6] = system: HCV genotype 1b replicon NS3 A156T; type: cell-based; settings: EC50 mutant / EC50 wild-type; mean of two experiments (individual values); 72 hours
Description: as §1, §2

## CCC[C@H](NC(=O)[C@@H]1[C@H]2CCC[C@H]2CN1C(=O)[C@@H](NC(=O)[C@@H](NC(=O)c1cnccn1)C1CCCCC1)C(C)(C)C)C(=O)C(=O)NC1CC1 [Telaprevir, (1S,3aR,6aS)-2-[(2S)-2-[[(2S)-2-Cyclohexyl-2-(pyrazine-2-carbonylamino)acetyl]amino]-3,3-dimethylbutanoyl]-N-[(3S)-1-(cyclopropylamino)-1,2-dioxohexan-3-yl]-3,3a,4,5,6,6a-hexahydro-1H-cyclopenta[c]pyrrole-1-carboxamide]
[1]
  Fold Resistance NS3 R155K: 4.6 (5.0, 4.2) fold

## C[C@@]1(O)[C@H](O)[C@@H](CO)O[C@H]1n1ccc(N)nc1=O [2′-C-Methylcytidine]
[2]; third replicate
  interaction: slightly antagonistic interaction
[2]; two of the assay replicates
  interaction: positive interactions

## 5′-Ts·^oc^·sAs·^otsa^·s^mCs·^oTs·^oa^·stsAs·^otsGs·^oa^·s^mCs·^oA·^o-3′ [SPC4729]
Huh-luc/neo-ET cells
  Cytotoxicity, Synergy vol: 0.00/−44.3 μM^2%
Huh-luc/neo-ET cells; Ribavirin plus the named compound, 95% confidence level
  Cytotoxicity, Antag Vol: 0.00/−44.3 μM^2%
[2]; ribavirin plus the named compound
  overall interaction (antiviral): antagonistic

## CC(C)(C)C#Cc1cc(N(C(=O)[C@H]2CC[C@H](C)CC2)[C@H]2CC[C@H](O)CC2)c(C(=O)O)s1 [VX-222]
[3]
  Fold Resistance NS5B M423I: 4.4 (3.6, 5.2) fold

## 5′-^mCs^ocsAs^otstsGs^oTs^ocsas^mCs^oas^mCs^ots^mCs^omCo-3′ (CCATTGTCACACTCC; all phosphorothioate, sugars by position and methylation of C not given here; further chemistry not fully specified) [miravirsen]
[4]
  Fold Resistance NS5A Y93H: 0.9 (0.8, 0.9) fold
[1]
  Fold Resistance NS3 R155K: 1.2 (1.9, 0.4) fold
[5]
  Fold Resistance NS5B S282T: 1.9 (2.6, 1.1) fold
[3]
  Fold Resistance NS5B M423I: 1.7 (2.3, 1.0) fold
[6]
  Fold Resistance NS3 A156T: 1.0 (1.4, 0.5) fold
